Measured values from PubChem BioAssay (NCI).
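These data come from cells grown in 96-well plates and exposed to compound for 48 hours at five concentrations. GI50 is the concentration that inhibits growth by half. TGI is the concentration that stops growth completely.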

Key:
Assay in all cases: NCI anticancer screen, dose series, 48 h
[1] = test system: BT-549 breast
[2] = test system: NCI-H460 lung
[3] = test system: CCRF-CEM leukemia
[4] = test system: UO-31 renal
[5] = test system: LOX IMVI melanoma
[6] = test system: RXF 393 renal
[7] = test system: OVCAR-3 ovarian
[8] = test system: UACC-257 melanoma
[9] = test system: A498 renal
[10] = test system: OVCAR-5 ovarian
[11] = test system: NCI-H226 lung
[12] = test system: SW-620 colon
[13] = test system: IGROV1 ovarian
[14] = test system: OVCAR-4 ovarian
[15] = test system: RPMI-8226 leukemia
[16] = test system: SF-268 CNS
[17] = test system: COLO 205 colon
[18] = test system: MDA-MB-231 breast
[19] = test system: HOP-92 NSCLC
[20] = test system: T-47D breast
[21] = test system: HOP-62 NSCLC
[22] = test system: U251 CNS
[23] = test system: MCF7 breast
[24] = test system: CAKI-1 renal
[25] = test system: TK-10 renal
[26] = test system: SK-MEL-2 melanoma
[27] = test system: MOLT-4 leukemia
[28] = test system: PC-3 prostate
[29] = test system: NCI-H522 lung

O=CN/N=C/c1ccc(Cl)c([N+](=O)[O-])c1
GI50 [1]: 3.31 µM | TGI [1]: 20 µM | GI50 [2]: 0.0427 µM | TGI [2]: 14.8 µM | GI50 [3]: 0.243 µM | TGI [3]: 72.6 µM | GI50 [4]: 54.1 µM | TGI [4]: > 100 µM | GI50 [5]: 0.111 µM | TGI [5]: 13.7 µM | GI50 [6]: 0.399 µM | TGI [6]: > 100 µM | GI50 [7]: 0.555 µM | TGI [7]: 20.7 µM | GI50 [8]: 0.618 µM | TGI [8]: 27.4 µM | GI50 [9]: 2.14 µM | TGI [9]: 90.5 µM | GI50 [10]: 0.189 µM | TGI [10]: > 100 µM | GI50 [11]: 0.725 µM | TGI [11]: > 100 µM | GI50 [12]: 0.0596 µM | TGI [12]: > 100 µM | GI50 [13]: 0.0728 µM | TGI [13]: 21.9 µM | GI50 [14]: 0.684 µM | TGI [14]: 60.6 µM | GI50 [15]: 0.439 µM | TGI [15]: 17.4 µM | GI50 [16]: 0.172 µM | TGI [16]: 18.4 µM | GI50 [17]: 0.11 µM | TGI [17]: 15.4 µM | GI50 [18]: 1.54 µM | TGI [18]: 27.3 µM | GI50 [19]: 1.24 µM | TGI [19]: 21.1 µM | GI50 [20]: 2.92 µM | TGI [20]: 51.7 µM | GI50 [21]: 1.47 µM | TGI [21]: 49.7 µM | GI50 [22]: 0.0617 µM | TGI [22]: 25.8 µM | GI50 [23]: 0.351 µM | TGI [23]: 58.6 µM | GI50 [24]: 4.04 µM | TGI [24]: > 100 µM | GI50 [25]: 2.4 µM | TGI [25]: 71.3 µM | GI50 [26]: 5.43 µM | TGI [26]: 22.6 µM | GI50 [27]: 0.577 µM | TGI [27]: 46.8 µM | GI50 [28]: 0.0249 µM | TGI [28]: 13.2 µM | GI50 [29]: 0.451 µM
